Test results reported in US4550166A, “(Pyridinyl)-1,2,4-triazolo[4,3-a]pyridines” (American Cyanamid Company, priority 1984, dated 1985).

Key:
[1] = test system: Brain-specific Receptors of Rats (^3 H-benzodiazepine binding); assay: Inhibition of the Binding of ^3 H--Benzodiazepine to Brain-specific Receptors of Rats; set-up: species or system rats (male albino, Wistar strain); conditions: 1 μM; whole cortex of rats, P2 fraction; ^3 H-diazepam (1.5 nM) or ^3 H-flunitrazepam (1.0 nM)
[2] = test system: clonic seizures caused by pentylenetetrazole in rats; assay: Protection Against Clonic Siezures Caused by Pentylenetetrazole in Rats; format: in vivo; conditions: Dose 25 mg/kg, orally or intraperitoneally, pentylenetetrazole 23 mg/kg i.v. at 30 or 60 minutes
Experimental: The antianxiety properties of the novel compounds of the present invention have been established in a test which indicates anxiolytic activity by the measure of protection from convulsions resulting from the administration of pentylenetetrazole. Single or graded dose levels of the test compounds were administered orally or intraperitoneally in a 2% starch vehicle, containing 0.5% v/v polyethylene glycol and one drop of Polysorbate 80 to groups of at least four rats. At 30 or 60 minutes, the rats were treated intravenously with pentylenetetrazole at a dose of 23 mg/kg of body weight. This dose is estimated to cause clonic seizures in 99% of unprotected rats.
It has been reported [R. T. Hill and D. H. Tedeschi, "Animal Testing and Screening Procedures in Evaluating Psychotropic Drugs" in An Introduction to Psychopharmacology, Eds. R. R. Rech and K. E. Moore, Raven Press, New York, pp 237-288 (1971)] that there is a high degree of correlation between antagonism of pentylenetetrazole seizures in rats and antianxiety effects in higher warm-blooded animals.

[3] = test system: conflict situation in rats; assay: Non-Conditioned Passive Avoidance Test in Rats; format: in vivo, Wistar strain rats; set-up: key: Active: considered active if the number of shocks received by the test group is significantly higher than the control group by the Mann-Witney U test; conditions: Dose 25 mg/kg, oral or intraperitoneal, 30 or 60 minutes
Experimental: Another test which has been used to assess anti-anxiety effects is a non-conditioned passive avoidance procedure described by J. R. Vogel, B. Beer and D. E. Clody, "A Simple and Reliable Conflict Procedure for Testing Antianxiety Agents", Psychopharmacologia, 21, 1-7 (1971). A conflict situation was induced in rats by a modification of this method.
Groups of 6 naive, Wistar strain rats, weighing 200-240 g each, were deprived of water for 48 hours and food for 24 hours. The test compounds were administered in single or graded, oral or intraperitoneal doses, suspended in a 2% starch vehicle containing 0.5% v/v polyethylene glycol and one drop of Polysorbate 80. Control animals received the vehicle alone. At 30 or 60 minutes each rat was placed in an individual plexiglass chamber. Water was available ad libitum from a tap located in the rear of the chamber. A 0.7 milliampere DC shocking current was established between the stainless steel grid floor and the tap. After 20 licks of non-shocked drinking, a shock was delivered for 2 seconds and then further shocks were delivered on a ratio of one shock for 2 seconds for every 20 licks. This was continued for a total of 3 minutes. The number of shocks taken by each rat during the 3 minute interval was recorded and compared to a control group.

| Structure (SMILES) | % Inhibition [1] [%] | % of Rats Protected [2] [%] | Result [3] |
| --- | --- | --- | --- |
| c1ccc(-c2cccn3cnnc23)nc1 [8-(2-Pyridinyl)-1,2,4-triazolo[4,3-a]pyridine] | 26 | – | – |
| c1ccc(-c2ccn3cnnc3c2)nc1 [7-(2-Pyridinyl)-1,2,4-triazolo[4,3-a]pyridine] | 15 | 25 | – |
| Cc1nnc2cc(-c3ccccn3)ccn12 [3-Methyl-7-(2-pyridinyl)-1,2,4-triazolo[4,3-a]pyridine] | 27 | – | – |
| c1cncc(-c2cccn3cnnc23)c1 [8-(3-Pyridinyl)-1,2,4-triazolo[4,3-a]pyridine] | 18 | – | – |
| Cc1nnc2c(-c3cccnc3)cccn12 [3-Methyl-8-(3-pyridinyl)-1,2,4-triazolo[4,3-a]pyridine] | 24 | – | Active |
| c1ccc(-c2cccc3nncn23)nc1 [5-(2-Pyridinyl)-1,2,4-triazolo[4,3-a]pyridine] | 26 | – | – |
| Cc1nnc2cc(-c3ccncc3)ccn12 [3-Methyl-7-(4-pyridinyl)-1,2,4-triazolo[4,3-a]pyridine] | 24 | – | – |
| Cc1nnc2ccc(-c3cccnc3)cn12 [3-Methyl-6-(3-pyridinyl)-1,2,4-triazolo[4,3-a]pyridine] | 20 | 75 | – |
| c1cncc(-c2ccc3nncn3c2)c1 [6-(3-Pyridinyl)-1,2,4-triazolo[4,3-a]pyridine] | 13 | 33 | – |
| Cc1nnc2c(-c3ccccn3)cccn12 [3-Methyl-8-(2-pyridinyl)-1,2,4-triazolo[4,3-a]pyridine] | 22 | – | Active |
